{"source": "patent US20090196885A1", "about": "“Cancer Treatment” (National Health Research Institutes, priority 2005, published 2009)", "tested_on": "Hep G2 hepatoma cells", "assay": "In vitro cancer cell proliferation assay (sulforhodamine B), Hep G2", "type": "cell-based", "conditions": "Homo sapiens, HepG2, 144 h; lovastatin 2 μM alone; incubation for 6 days; read-out: inhibited growth of Hep G2 cells", "method": "Hep G2 hepatoma cells were seeded in a 96-well culture plate (2000 cells/well) and cultured overnight in 100 μl of complete DMEM."}
{"compound": "CC[C@H](C)C(=O)O[C@H]1C[C@@H](C)C=C2C=C[C@H](C)[C@H](CC[C@@H]3C[C@@H](O)CC(=O)O3)[C@H]21", "note": "[lovastatin]", "values": [{"measurement": "inhibition at 2 µM", "value": 11.5, "unit": "%"}]}
